Legend:
[1] = Metabolite analysis of monkey blood from the imaging studies; assay type: in vivo, rhesus macaques
Method: (§1) All animal studies were performed under protocols approved by the University of Pennsylvania Institutional Animal Care and Use Committee. Male rhesus macaques (13-21 year old) were sedated with ketamine/dexdomidor and anesthesia maintained for imaging with 1% isoflurane. Temperature was maintained with a recirculating water warm pad and vital signs such as blood pressure, pulse oximetry, and EKG were monitored continuously. Three rhesus macaques were scanned on the G-PET, a high sensitivity, high resolution PET scanner using gadolinium orthosilicate crystals incorporated into an Anger-logic detector developed for brain imaging. […]
The blood samples were centrifuged at 3000 G for 10 min to separate plasma and red blood cells. […] After the supernatant had been separated from the pellet, each portion was counted with a gamma counter (PerkinElmer Wizard 2480) to determine the extraction efficiency. […] The collected HPLC fractions were measured by Gamma Counter for further data analysis. Meanwhile the cold reference was also injected and monitored at 254 nm UV wavelength.
(§2) These images are similar to the those obtained and expected with [^18F]FTT (FIG. 5B), showing the PARPi to be non-BBB penetrable. Metabolic stability of [^18F]31 was assessed using the monkey blood from each imaging study and found 42% and 45% of the parent compound intact at 40 min and 37 min, respectively.

[2] = Metabolic stability in rodent studies (mice blood and brain); assay type: in vivo; conditions: 5 min
Method: Rodent studies were then performed with [^18F]31, including control and P-gp knockout (k/o) mice models to validate the tracer as a non-P-gp substrate.

[3] = PET imaging of brain uptake in rhesus macaques; assay type: in vivo; conditions: intravenous injection, all brain regions, FIG. 5A
Method: as §1, with “imaging. Data was acquired for up to 50 min (6×10 sec, 3×60 sec, 3×120 sec, 3×180 sec, 4×300 sec, and 1 ×600 sec) in list mode after an intravenous injection of 101.6 MBq [^18F]FTT to one of the rhesus macaques, and 91.4-128.8 MBq [^18F]31 to two of the rhesus macaques. A venous blood sample was drawn into a heparinized syringe at 37 min post […] injection for metabolite analysis.” for “imaging.”
as §2

O=C(c1cc(Cc2n[nH]c(=O)c3ccccc23)ccc1F)N1CCC(OCC[18F])CC1 [[^18F]31]
parent compound intact ([1]; 37 min): 45%
parent compound intact ([1]; 40 min): 42%
decomposition of the parent compound [2]: over 80%
brain uptake (PET) [3]: low brain uptake
brain uptake (PET) ([3]; listed as [18F]31): no appreciable brain uptake

Reference: patent US11542282B2, “Low affinity poly(AD-ribose) polymerase 1 dependent cytotoxic agents” (THE TRUSTEES OF THE UNIVERSITY OF PENNSYLVANIA, priority 2018, dated 2023)
